ChEMBL document CHEMBL1201862, “PubChem BioAssay data set” (2004)
The source made the active and inactive calls.

Experiments:
[1] = molecular target: T1, Oxysterols receptor LXR-beta (Homo sapiens, UniProt P55055); type: functional, cell-based;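 further: agonist activity at LXR measured by a cell-based luminescence readout across a dose range, run as a counterscreen for daf-12 agonists; HEK293 cells with Gal4-LXR fusion and GAL4-driven luciferase reporter; potency for activation of Gal4-LXR reporter so compounds are agonists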
T1 sequence (P55055 whole entry): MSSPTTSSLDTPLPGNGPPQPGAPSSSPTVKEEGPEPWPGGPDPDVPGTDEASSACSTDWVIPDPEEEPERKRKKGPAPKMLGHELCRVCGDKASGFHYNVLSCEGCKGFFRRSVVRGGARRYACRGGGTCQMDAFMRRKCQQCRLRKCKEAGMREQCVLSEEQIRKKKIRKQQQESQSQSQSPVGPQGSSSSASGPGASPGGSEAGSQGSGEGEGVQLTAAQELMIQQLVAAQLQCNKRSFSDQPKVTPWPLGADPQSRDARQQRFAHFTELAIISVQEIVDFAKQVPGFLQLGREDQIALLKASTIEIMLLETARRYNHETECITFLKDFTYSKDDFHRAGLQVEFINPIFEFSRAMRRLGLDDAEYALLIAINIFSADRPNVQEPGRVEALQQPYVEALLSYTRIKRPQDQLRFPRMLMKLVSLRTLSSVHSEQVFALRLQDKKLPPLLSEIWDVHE

[2] = molecular target: T2, Fructose-bisphosphate aldolase (Mycobacterium tuberculosis, UniProt P9WQA3); test: Fluorescence-based biochemical high throughput dose response assay for inhibitors of the fructose-bisphosphate aldolase (FBA) of M. tuberculosis.; type: functional
T2 sequence (P9WQA3 whole entry): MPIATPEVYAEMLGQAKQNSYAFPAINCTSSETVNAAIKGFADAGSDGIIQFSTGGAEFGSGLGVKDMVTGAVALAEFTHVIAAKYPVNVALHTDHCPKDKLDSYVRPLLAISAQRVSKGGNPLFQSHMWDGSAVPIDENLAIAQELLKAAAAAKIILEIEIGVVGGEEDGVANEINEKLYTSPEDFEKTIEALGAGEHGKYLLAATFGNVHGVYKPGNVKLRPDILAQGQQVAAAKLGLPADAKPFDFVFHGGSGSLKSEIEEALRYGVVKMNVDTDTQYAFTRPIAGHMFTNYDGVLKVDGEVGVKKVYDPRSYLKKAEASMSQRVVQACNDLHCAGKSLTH

Beta-lactamase [3] = molecular target: Beta-lactamase (Salmonella choleraesuis (strain SC-B67), UniProt Q5J463); test: Epi-absorbance-based counterscreen for selective VIM-2 inhibitors: dose response biochemical high throughput screening assay to identify inhibitors of TEM-1 serine-beta-lactamase.
Beta-lactamase (Salmonella choleraesuis (strain SC-B67), UniProt Q5J463), sequence (Q5J463 whole entry): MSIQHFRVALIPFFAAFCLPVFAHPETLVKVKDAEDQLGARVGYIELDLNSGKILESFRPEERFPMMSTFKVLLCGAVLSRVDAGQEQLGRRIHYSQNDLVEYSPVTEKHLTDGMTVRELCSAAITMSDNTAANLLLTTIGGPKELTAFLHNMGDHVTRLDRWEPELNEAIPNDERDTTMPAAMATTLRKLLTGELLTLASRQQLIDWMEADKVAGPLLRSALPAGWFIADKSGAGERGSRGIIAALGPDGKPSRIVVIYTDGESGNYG

Beta-lactamase [4] = molecular target: T3, Beta-lactamase (Pseudomonas aeruginosa, UniProt Q79MP6); test: […] counterscreen for selective VIM-2 inhibitors: dose response biochemical high throughput screening assay to identify inhibitors of IMP-1 metallo-beta-lactamase.
T3 sequence (Q79MP6 whole entry): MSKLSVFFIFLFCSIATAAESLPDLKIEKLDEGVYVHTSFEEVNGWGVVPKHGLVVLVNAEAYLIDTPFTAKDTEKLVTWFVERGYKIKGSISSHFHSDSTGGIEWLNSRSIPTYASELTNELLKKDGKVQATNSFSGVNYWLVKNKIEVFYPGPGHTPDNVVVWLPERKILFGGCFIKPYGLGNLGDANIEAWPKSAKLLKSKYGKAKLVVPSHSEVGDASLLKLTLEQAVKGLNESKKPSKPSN

Beta-lactamase [5] = molecular target: T3, Beta-lactamase; test: IMP-1 metallo-beta-lactamase inhibitors, dose response, selectivity assay for VIM-2 inhibitor project, biochemical, epi-absorbance (AID 1920)
Beta-galactosidase = Beta-galactosidase (Escherichia coli, UniProt Q8VNN2); test: beta-galactosidase enzyme inhibitors and activators, dose response, artefact control for CCR6 antagonist project, biochemical, E. coli enzyme, set 3 (AID 504712); type: functional
Beta-galactosidase, sequence (Q8VNN2 whole entry): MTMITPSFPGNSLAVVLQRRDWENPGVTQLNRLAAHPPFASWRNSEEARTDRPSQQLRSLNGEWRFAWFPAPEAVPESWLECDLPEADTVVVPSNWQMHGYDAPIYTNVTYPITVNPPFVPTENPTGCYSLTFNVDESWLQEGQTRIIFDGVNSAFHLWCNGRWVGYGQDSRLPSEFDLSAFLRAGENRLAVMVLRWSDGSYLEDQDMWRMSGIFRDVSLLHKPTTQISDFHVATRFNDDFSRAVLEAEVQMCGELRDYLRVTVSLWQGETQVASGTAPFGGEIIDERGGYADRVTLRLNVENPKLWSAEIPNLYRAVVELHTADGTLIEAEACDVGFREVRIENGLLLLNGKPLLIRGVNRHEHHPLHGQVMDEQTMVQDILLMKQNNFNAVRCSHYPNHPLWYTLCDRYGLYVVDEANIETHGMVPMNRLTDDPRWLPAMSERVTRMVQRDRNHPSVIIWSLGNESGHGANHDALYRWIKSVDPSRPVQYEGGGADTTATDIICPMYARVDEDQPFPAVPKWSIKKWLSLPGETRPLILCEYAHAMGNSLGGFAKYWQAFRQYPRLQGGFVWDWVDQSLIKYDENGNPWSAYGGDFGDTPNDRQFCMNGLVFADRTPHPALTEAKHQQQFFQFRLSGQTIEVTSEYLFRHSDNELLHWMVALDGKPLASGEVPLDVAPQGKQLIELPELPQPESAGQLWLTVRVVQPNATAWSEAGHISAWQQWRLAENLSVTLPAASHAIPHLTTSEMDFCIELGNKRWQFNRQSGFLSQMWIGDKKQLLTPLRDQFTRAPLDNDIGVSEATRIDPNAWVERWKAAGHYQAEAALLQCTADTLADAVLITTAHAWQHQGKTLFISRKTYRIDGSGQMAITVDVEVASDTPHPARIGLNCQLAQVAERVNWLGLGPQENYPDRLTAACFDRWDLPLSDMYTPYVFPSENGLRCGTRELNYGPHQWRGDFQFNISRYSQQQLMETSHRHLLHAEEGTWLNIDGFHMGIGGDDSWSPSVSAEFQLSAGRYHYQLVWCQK

cells = type: functional, cell-based
[6] = molecular target: T4, Nuclear receptor subfamily 0 group B member 1 (Homo sapiens, UniProt P51843); type: functional, cell-based;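 further: HEK293T cells transfected with SF-1 and DAX-1 plus StAR promoter luciferase reporter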
T4 sequence (P51843 whole entry): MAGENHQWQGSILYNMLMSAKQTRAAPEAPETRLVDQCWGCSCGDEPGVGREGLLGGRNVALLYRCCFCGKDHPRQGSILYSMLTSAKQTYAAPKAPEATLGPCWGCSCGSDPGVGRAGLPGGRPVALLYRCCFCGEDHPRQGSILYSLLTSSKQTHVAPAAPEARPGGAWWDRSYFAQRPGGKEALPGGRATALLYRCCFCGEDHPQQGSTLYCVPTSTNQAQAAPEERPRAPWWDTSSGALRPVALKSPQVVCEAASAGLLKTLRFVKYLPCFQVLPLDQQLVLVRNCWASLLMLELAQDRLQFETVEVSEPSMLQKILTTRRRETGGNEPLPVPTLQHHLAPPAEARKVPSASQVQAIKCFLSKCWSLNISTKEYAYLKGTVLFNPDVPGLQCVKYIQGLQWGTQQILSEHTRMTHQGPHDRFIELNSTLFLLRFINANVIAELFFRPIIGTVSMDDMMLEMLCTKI

[7] = inhibitors of clade B AD8 Env fusion, dose response, cell-based, cherry-pick (AID 652062); type: functional;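 further: luciferase signal from cell-cell fusion driven by HIV-1 clade B AD8 Env; potency is for inhibitors of fusion seen as a drop in luminescence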
[8] = HEK293T cytotoxicity, dose response, cytotoxicity control for miR-122 modulator project, cell-based, inhibitor set, cherry-pick, set 2 (AID 720697); type: functional
[9] = molecular target: T5, Probable nicotinate-nucleotide adenylyltransferase (Staphylococcus aureus (strain N315), UniProt P65502); type: functional, Staphylococcus aureus subsp. aureus N315; conditions: read-out: IC50_Mean;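 on IC50 Mean: confirmatory dose-response retesting of NadD inhibitor hits first found in an ultra-high-throughput screen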
T5 sequence (P65502 whole entry): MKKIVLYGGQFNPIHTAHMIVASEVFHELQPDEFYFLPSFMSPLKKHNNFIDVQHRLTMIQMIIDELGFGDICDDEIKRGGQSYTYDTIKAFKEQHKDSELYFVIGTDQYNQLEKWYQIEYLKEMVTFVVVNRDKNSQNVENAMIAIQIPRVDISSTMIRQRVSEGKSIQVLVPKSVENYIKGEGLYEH

[10] = molecular target: T5, Probable nicotinate-nucleotide adenylyltransferase; type: functional, Staphylococcus aureus subsp. aureus N315
Streptokinase A = molecular target: T6, Streptokinase A (Streptococcus pyogenes serotype M1, UniProt P10520); test: S. pyogenes streptokinase expression inhibitors, potency, dose response, plasminogen activation absorbance, OD405 (AID 1914); type: functional, Streptococcus pyogenes M1 GAS;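 further: secreted streptokinase activity via plasminogen activation per viability signal from cell pellet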
T6 sequence (P10520 whole entry): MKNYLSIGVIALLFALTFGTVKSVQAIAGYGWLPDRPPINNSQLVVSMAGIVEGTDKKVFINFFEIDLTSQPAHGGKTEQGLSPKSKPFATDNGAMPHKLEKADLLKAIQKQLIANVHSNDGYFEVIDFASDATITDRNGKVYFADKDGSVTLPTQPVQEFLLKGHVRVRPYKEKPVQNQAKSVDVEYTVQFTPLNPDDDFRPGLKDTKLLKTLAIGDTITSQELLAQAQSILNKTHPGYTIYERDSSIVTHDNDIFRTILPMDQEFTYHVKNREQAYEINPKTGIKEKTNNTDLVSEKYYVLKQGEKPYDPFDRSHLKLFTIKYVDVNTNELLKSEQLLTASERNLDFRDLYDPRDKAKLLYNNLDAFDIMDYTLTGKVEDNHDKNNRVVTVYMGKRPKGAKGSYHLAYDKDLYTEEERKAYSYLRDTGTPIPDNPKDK

[11] = molecular target: T7, Ubiquitin-conjugating enzyme E2 N (Homo sapiens, UniProt P61088); type: functional;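 further: Dose-response confirmation in a TR-FRET assay detecting UBC13-driven polyubiquitin chain formation, inhibition measured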
T7 sequence (P61088 whole entry): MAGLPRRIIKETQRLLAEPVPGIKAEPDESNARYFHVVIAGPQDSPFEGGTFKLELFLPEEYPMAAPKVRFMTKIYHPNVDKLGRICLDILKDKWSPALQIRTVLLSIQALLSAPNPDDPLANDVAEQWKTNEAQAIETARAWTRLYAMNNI

[12] = system: Streptococcus sp. 'group A'; test: growth inhibition of control SK(-) GAS strain, dose response, counter-screen for streptokinase expression inhibitor project, luminescence, kanamycin, BacTiterGlo, confirmation (AID 1900); type: functional, organism-based
Streptococcus = test: Group A Streptococcus viability loss, dose response, counter-screen for streptokinase expression inhibitor project, luminescence, BacTiterGlo (AID 1915); type: functional, organism-based;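 further: potency for reduction of bacterial viability or growth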
[13] = molecular target: T8, Hepatocyte nuclear factor 4-alpha (Homo sapiens, UniProt P41235); type: functional, cell-based;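 further: biochemical luminescence-based dose-response counterscreen measuring inhibition of HNF4 dimerization, run alongside a screen for blockers of ABHD5–perilipin-5 interaction; split luciferase complementation of HNF4 fusion proteins in cell lysate measuring dimerization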
T8 sequence (P41235 whole entry): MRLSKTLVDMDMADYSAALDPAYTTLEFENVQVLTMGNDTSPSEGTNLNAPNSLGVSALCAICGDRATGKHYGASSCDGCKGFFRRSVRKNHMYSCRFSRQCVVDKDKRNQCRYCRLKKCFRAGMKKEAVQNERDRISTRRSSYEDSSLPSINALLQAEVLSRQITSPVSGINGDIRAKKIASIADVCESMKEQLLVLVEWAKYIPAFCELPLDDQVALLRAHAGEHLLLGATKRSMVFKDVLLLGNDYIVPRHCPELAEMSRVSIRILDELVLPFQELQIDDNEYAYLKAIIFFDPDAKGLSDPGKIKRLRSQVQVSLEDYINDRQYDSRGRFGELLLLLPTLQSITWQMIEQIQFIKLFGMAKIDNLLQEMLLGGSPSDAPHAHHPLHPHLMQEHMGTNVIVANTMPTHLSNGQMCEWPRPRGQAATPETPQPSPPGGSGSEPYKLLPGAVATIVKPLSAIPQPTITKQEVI

## O=c1c2ccccc2nnn1CSc1ccccc1F
[1]
  EC50: > 67.5 µM (inactive)

## O=C(NCc1cccc(Cl)c1)C1=CC=CN2CCS(=O)(=O)N=C12
[2]
  IC50: 2.61 µM (active)

## Cc1cccc(NC(=O)c2ccc3ccccc3n2)c1C
[1]
  EC50: > 67.5 µM (inactive)

## CC(C)(C)c1ccc(-c2n[nH]c(=S)n2CCCN2CCOCC2)cc1
Beta-lactamase [3]
  IC50: > 59.6 µM (inactive)
Beta-lactamase [4]
  IC50: > 59.6 µM (inactive)
Beta-lactamase [5]
  IC50: > 59.6 µM (inactive)

## Cc1ccnc(NC(=O)/C=C/c2cccs2)c1
[1]
  EC50: > 67.6 µM (inactive)

## COc1ccc2[nH]c(C(=O)O)c(CCN3C(=O)c4ccc(C(=O)O)cc4C3=O)c2c1
Beta-lactamase [3]
  IC50: > 59.6 µM (inactive)
Beta-lactamase [4]
  IC50: > 59.6 µM (inactive)
Beta-lactamase [5]
  IC50: > 59.6 µM (inactive)

## Cc1ccc(NC(S)=NNC(=O)Nc2ccccc2)cc1
Beta-galactosidase
  IC50: > 66.6 µM (inactive)
cells
  IC50: > 67.6 µM (inactive)
[6]
  IC50: > 67.6 µM (inactive)

## CCOc1ccc(-n2nc3ccc(N)cc3n2)cc1
[2]
  IC50: 0.716 µM (active)

## Cc1ccc(C(=O)NNC(=O)c2ccc3c(c2)OCCO3)cc1
cells
  IC50: > 67.5 µM (inactive)
[6]
  IC50: > 67.5 µM (inactive)

## CCCN1CCN(CCCNC(=O)c2ccc3c(c2)NC(=O)c2ccccc2S3)CC1
cells
  IC50: > 67.5 µM (inactive)
[6]
  IC50: > 67.5 µM (inactive)

## COc1ccc(-c2cn3c(C)c(C(=O)Nc4cccc(NC(C)=O)c4)sc3n2)cc1
[7]
  AC50: 17 µM (active)
[8]
  AC50: 6.44 µM (active)

## CC(C)(C)CC(=O)Nc1nnc(SCC(=O)NCc2cccs2)s1
Beta-lactamase [3]
  IC50: > 59.6 µM (inactive)
Beta-lactamase [4]
  IC50: > 59.6 µM (inactive)
Beta-lactamase [5]
  IC50: > 59.6 µM (inactive)

## Cn1cccc1-c1nc2ccccc2n1C
[2]
  IC50: 3.08 µM (active)

## COc1ccc(NS(=O)(=O)c2ccc(NC(=S)NC(=O)/C=C/c3ccc(C)cc3)cc2)nn1
[9]
  IC50: 39.3 µM (active)
[10]
  IC50: 5.17 µM (active)

## CC(C)Cn1c(=O)c(C(=O)Nc2ccccc2S(N)(=O)=O)c(O)c2ccccc21
Streptokinase A
  EC50: > 150 µM (not active)
[11]
  IC50: > 20 µM (inactive)
[12]
  EC50: 6.34 µM (active)
[9]
  IC50: 61.2 µM (active)
[10]
  IC50: 8.62 µM (active)
Streptococcus
  EC50: 28.6 µM (active)

## COc1ccc(NC(=O)C(c2ccnc3ccccc23)n2c(=O)c(-c3ccco3)nc3ccccc32)cc1 (configuration not stated)
[13]
  IC50: 10.9 µM (inactive)

## O=C(NC1CCCCC1)C(c1ccc(C(F)(F)F)cc1)n1c(=O)c(-c2ccco2)nc2ccccc21 (configuration not stated)
[13]
  IC50: 2.41 µM (active)

## CCCCCNC(=O)C(c1ccc(C#N)cc1)n1c(=O)c(-c2ccco2)nc2ccccc21 (configuration not stated)
[13]
  IC50: 3.24 µM (active)

## COc1ccc(C(C(=O)NCc2ccccc2)n2c(=O)c(-c3ccco3)nc3ccccc32)cc1 (configuration not stated)
[13]
  IC50: 2.46 µM (active)

## Cc1ccc(-c2nc3ccc(Br)cn3c2Cc2ccccc2)cc1
cells
  IC50: > 67.6 µM (inactive)
[6]
  IC50: > 67.6 µM (inactive)

## C#CCN(C[C@H]1[C@H](OC(=O)Nc2cccs2)[C@H](OC(=O)Nc2cccs2)C[C@H]2C(=O)N(c3ccccc3)C(=O)[C@@H]12)S(=O)(=O)c1ccc(C)cc1
[9]
  IC50: 34.5 µM (active)
[10]
  IC50: 19.9 µM (active)

## CC(C)NC(=O)N1C[C@@H]2[C@H](c3ccccc31)[C@@H](CO)N2C(=O)c1cccnc1
[8]
  AC50: 10.1 µM (active)

## COc1ccc(/C=C2\Oc3ccccc3C2=O)cc1 [4'-METHOXY-AURONE]
[2]
  IC50: 0.912 µM (active)
